Literature values in US20190000853A1, “ANTIVIRAL 4-(2-AMINO-6-HETEROCYLYL-9H-PURIN-9-YL)-2-CYCLOPENTENE-1 -METHANOL COMPOUNDS” (THE UNIVERSITY OF LIVERPOOL, priority 2015, published 2019).

Test system: HIV-1
Conditions: literature comparison with Abacavir

Nc1nc(N2CCC2)c2ncn([C@H]3C=C[C@@H](CO)C3)c2n1 [ABC1-4]
Antiviral potency relative to Abacavir: equipotent to Abacavir
